Data published in patent publication US11535643B2, “Macrolides with modified desosamine sugars and uses thereof” (President and Fellows of Harvard College, priority 2015, dated 2022).
Converted amounts (≈) assume the structure as drawn. Like-named read-outs stand apart in the source and are kept apart here.

What was measured:
Assay type in all cases: cell-based
[1] = system: E. coli; assay: Broth dilution MIC determination (CLSI) against E. coli strains; conditions: Escherichia coli
Procedure, shortened: (§1)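 Strains, including multidrug-resistant and macrolide-resistant ones, were exposed to macrolides in broth dilution per CLSI standards, and the lowest inhibiting concentration was recorded as MIC. Azithromycin and solithromycin were run alongside.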

[2] = system: S. pneumoniae; assay: Broth dilution MIC determination (CLSI) against S. pneumoniae strains; conditions: Streptococcus pneumoniae
Procedure, shortened: as §1

[3] = system: H. influenzae; assay: Broth dilution MIC determination (CLSI) against H. influenzae strains; conditions: Haemophilus influenzae
Procedure, shortened: as §1

[4] = system: S. aureus; assay: Broth dilution MIC determination (CLSI) against S. aureus strains; conditions: Staphylococcus aureus
Procedure, shortened: as §1

[5] = system: P. aeruginosa; assay: Broth dilution MIC determination (CLSI) against P. aeruginosa strains; conditions: Pseudomonas aeruginosa
Procedure, shortened: as §1

[6] = system: S. pyogenes; assay: Broth dilution MIC determination (CLSI) against S. pyogenes strains; conditions: Streptococcus pyogenes
Procedure, shortened: as §1

[7] = system: A. baumannii; assay: Broth dilution MIC determination (CLSI) against A. baumannii strains; conditions: Acinetobacter baumannii
Procedure, shortened: as §1

[8] = system: K. pneumoniae; assay: Broth dilution MIC determination (CLSI) against K. pneumoniae strains; conditions: Klebsiella pneumoniae
Procedure, shortened: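 CLSI broth-dilution MICs across a panel including multidrug- and macrolide-resistant strains, with azithromycin and solithromycin as control compounds.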

[9] = system: E. faecalis; assay: Broth dilution MIC determination (CLSI) against E. faecalis strains; conditions: Enterococcus faecalis
Procedure, shortened: as §1

[10] = ATCC25922, ATCC25922, read-out: MIC E. coli ATCC25922
[11] = read-out: MIC E. coli CTX-M-14, CTX-M-14
[12] = read-out: MIC E. coli NDM-1, NDM-1
[13] = read-out: MIC E. coli TEM-1, TEM-1
[14] = ATCC49619, ATCC49619, read-out: MIC S. pneumoniae ATCC49619
[15] = erm B + mef A genotype, read-out: MIC S. pneumoniae erm B + mef A genotype
[16] = erm B + tet(M, O) genotype, read-out: MIC S. pneumoniae erm B + tet(M, O) genotype
[17] = read-out: MIC S. pneumoniae mef A genotype, mef A genotype
[18] = read-out: MIC S. pneumoniae mef A genotype, mef A genotype, first of two such columns (c3)
[19] = ATCC49247, ATCC49247, read-out: MIC H. influenzae ATCC49247
[20] = erythro > 4, azithro 1, read-out: MIC H. influenzae erythro > 4, azithro 1
[21] = ATCC29213, ATCC29213, read-out: MIC S. aureus ATCC29213
[22] = MRSA / USA100, MRSA: USA100, read-out: MIC S. aureus MRSA: USA100
[23] = MRSA / USA300, MRSA: USA300, read-out: MIC S. aureus MRSA: USA300
[24] = USA600, USA600, GISA, read-out: MIC S. aureus USA600, GISA
[25] = read-out: MIC S. aureus erm A genotype
[26] = ATCC27853, read-out: MIC P. aeruginosa ATCC27853
[27] = read-out: MIC P. aeruginosa HPA101-1477
[28] = ATCC19615, ATCC19615, read-out: MIC S. pyogenes ATCC19615
[29] = macrolide-resistant, read-out: MIC S. pyogenes macrolide-resistant
[30] = ATCC19606, ATCC19606, read-out: MIC A. baumannii ATCC19606
[31] = IMP-4, read-out: MIC A. baumannii IMP-4
[32] = chromosomal class C, read-out: MIC A. baumannii chromosomal class C
[33] = imipenem-resistant, read-out: MIC A. baumannii imipenem-resistant
[34] = ATCC10031, ATCC10031, read-out: MIC K. pneumoniae ATCC10031
[35] = KPC-2, read-out: MIC K. pneumoniae KPC-2
[36] = SHV-12, read-out: MIC K. pneumoniae SHV-12
[37] = TEM-10, read-out: MIC K. pneumoniae TEM-10
[38] = ATCC29212, ATCC29212, read-out: MIC E. faecalis ATCC29212
[39] = Vancomycin-resistant, read-out: MIC E. faecalis Vancomycin-resistant

Q: How did the MIC [1, 10] turn out when `CC[C@H]1OC(=O)[C@H](C)C(=O)[C@H](C)[C@@H](O[C@@H]2OC(CNC(=O)c3ccccn3)CC(N(C)C)C2O)[C@](C)(OC)C[C@@H](C)CN[C@H](C)[C@H]2N(CCCCn3cc(-c4cccc(N)c4)nn3)C(=O)O[C@]12C` (stereo partly shown) [FSM-21887] was run?
A: The MIC was 16 µg/mL (≈ 16.9 µM).

Q: And the MIC [1, 11]?
A: Its MIC is greater than 32 µg/mL.

Q: And the MIC [1, 12]?
A: Its MIC is 32 µg/mL (≈ 33.7 µM).

Q: And the MIC [1, 13]?
A: The MIC was 16 µg/mL (≈ 16.9 µM).

Q: And the MIC [2, 14]?
A: The MIC was no more than 0.0312 µg/mL.

Q: What about the MIC [2, 15] of the same molecule?
A: Its MIC is 1 µg/mL.

Q: And the MIC [2, 16]?
A: The MIC was no more than 0.0312 µg/mL.

Q: And the MIC [2, 17]?
A: Its MIC is 0.5 µg/mL (≈ 0.527 µM).

Q: And the MIC [2, 18]?
A: The MIC was 0.0625 µg/mL (≈ 0.0659 µM).

Q: What about the MIC [3, 19] of the same molecule?
A: The MIC was 2 µg/mL (≈ 2.11 µM).

Q: What about the MIC [3, 20] of the same molecule?
A: The MIC was 2 µg/mL (≈ 2.11 µM).

Q: What about the MIC [4, 21] of the same molecule?
A: Its MIC is 8 µg/mL (≈ 8.44 µM).

Q: What about the MIC [4, 22] of the same molecule?
A: Its MIC is greater than 32 µg/mL.

Q: And the MIC [4, 23]?
A: Its MIC is greater than 32 µg/mL.

Q: And the MIC [4, 24]?
A: The MIC was greater than 32 µg/mL.

Q: And the MIC [4, 25]?
A: The MIC was greater than 32 µg/mL.

Q: And the MIC [5, 26]?
A: The MIC was greater than 32 µg/mL.

Q: What about the MIC [5, 27] of the same molecule?
A: The MIC was greater than 32 µg/mL.

Q: And the MIC [6, 28]?
A: The MIC was no more than 0.0312 µg/mL.

Q: What about the MIC [6, 29] of the same molecule?
A: Its MIC is 1 µg/mL (≈ 1.05 µM).

Q: And the MIC [7, 30]?
A: The MIC was 32 µg/mL (≈ 33.7 µM).

Q: What about the MIC [7, 31] of the same molecule?
A: Its MIC is greater than 32 µg/mL.

Q: What about the MIC [7, 32] of the same molecule?
A: The MIC was 32 µg/mL (≈ 33.7 µM).

Q: And the MIC [7, 33]?
A: Its MIC is 32 µg/mL (≈ 33.7 µM).

Q: And the MIC [8, 34]?
A: Its MIC is 8 µg/mL (≈ 8.44 µM).

Q: What about the MIC [8, 35] of the same molecule?
A: The MIC was greater than 32 µg/mL.

Q: And the MIC [8, 36]?
A: Its MIC is greater than 32 µg/mL.

Q: And the MIC [8, 37]?
A: The MIC was 16 µg/mL (≈ 16.9 µM).

Q: What about the MIC [9, 38] of the same molecule?
A: Its MIC is 0.5 µg/mL (≈ 0.527 µM).

Q: What about the MIC [9, 39] of the same molecule?
A: Its MIC is greater than 32 µg/mL.

Q: With `CC[C@H]1OC(=O)[C@H](C)C(=O)[C@H](C)[C@@H](O[C@@H]2OC(CNC(=O)c3cc[nH]n3)CC(N(C)C)C2O)[C@](C)(OC)C[C@@H](C)CN[C@H](C)[C@H]2N(CCCCn3cc(-c4cccc(N)c4)nn3)C(=O)O[C@]12C` (stereo partly shown) [FSM-21888] as the molecule, how does the MIC [1, 10] read?
A: The MIC was 32 µg/mL (≈ 34.1 µM).

Q: What about the MIC [1, 12] of the same molecule?
A: The MIC was greater than 32 µg/mL.

Q: What about the MIC [2, 14] of the same molecule?
A: Its MIC is less than 0.0313 µg/mL.

Q: And the MIC [2, 15]?
A: Its MIC is 2 µg/mL.

Q: And the MIC [2, 16]?
A: Its MIC is less than 0.0313 µg/mL.

Q: And the MIC [2, 18]?
A: The MIC was 0.25 µg/mL (≈ 0.267 µM).

Q: What about the MIC [3, 19] of the same molecule?
A: Its MIC is 8 µg/mL (≈ 8.54 µM).

Q: And the MIC [3, 20]?
A: Its MIC is 8 µg/mL (≈ 8.54 µM).

Q: And the MIC [4, 21]?
A: Its MIC is 32 µg/mL (≈ 34.1 µM).

Q: And the MIC [4, 22]?
A: The MIC was greater than 32 µg/mL.

Q: And the MIC [4, 23]?
A: Its MIC is greater than 32 µg/mL.

Q: And the MIC [4, 24]?
A: The MIC was greater than 32 µg/mL.

Q: And the MIC [4, 25]?
A: Its MIC is greater than 32 µg/mL.

Q: And the MIC [5, 26]?
A: Its MIC is greater than 32 µg/mL.

Q: And the MIC [6, 28]?
A: The MIC was less than 0.0313 µg/mL.

Q: What about the MIC [6, 29] of the same molecule?
A: The MIC was 1 µg/mL (≈ 1.07 µM).

Q: What about the MIC [7, 30] of the same molecule?
A: Its MIC is greater than 32 µg/mL.

Q: And the MIC [7, 33]?
A: Its MIC is greater than 32 µg/mL.

Q: What about the MIC [8, 34] of the same molecule?
A: Its MIC is 8 µg/mL (≈ 8.54 µM).

Q: What about the MIC [8, 35] of the same molecule?
A: The MIC was greater than 32 µg/mL.

Q: And the MIC [9, 38]?
A: Its MIC is 4 µg/mL (≈ 4.27 µM).

Q: What about the MIC [9, 39] of the same molecule?
A: Its MIC is greater than 32 µg/mL.

Q: Which results are given for `CC[C@H]1OC(=O)[C@H](C)C(=O)[C@H](C)[C@@H](O[C@@H]2OC(CN(C)C)CC(N(C)C)C2O)[C@](C)(OC)C[C@@H](C)CN(C)[C@H](C)[C@H]2N(CCCCn3cc(-c4cccc(N)c4)nn3)C(=O)O[C@]12C` (stereo partly shown) [FSM-22003]?
A: MIC [1, 10]: > 32 µg/mL; MIC [1, 11]: > 32 µg/mL; MIC [1, 12]: > 32 µg/mL; MIC [1, 13]: 32 µg/mL (≈ 36.2 µM); MIC [2, 14]: ≤ 0.0312 µg/mL; MIC [2, 15]: 32 µg/mL; MIC [2, 16]: ≤ 0.0312 µg/mL; MIC [2, 17]: 0.5 µg/mL (≈ 0.565 µM); MIC [2, 18]: 0.0625 µg/mL (≈ 0.0706 µM); MIC [3, 19]: 8 µg/mL (≈ 9.04 µM); MIC [3, 20]: 4 µg/mL (≈ 4.52 µM); MIC [4, 21]: 8 µg/mL (≈ 9.04 µM); MIC [4, 22]: > 32 µg/mL; MIC [4, 23]: > 32 µg/mL; MIC [4, 24]: > 32 µg/mL; MIC [4, 25]: > 32 µg/mL; MIC [5, 26]: > 32 µg/mL; MIC [5, 27]: > 32 µg/mL; MIC [6, 28]: ≤ 0.0312 µg/mL; MIC [6, 29]: 2 µg/mL (≈ 2.26 µM); MIC [7, 30]: > 32 µg/mL; MIC [7, 31]: > 32 µg/mL; MIC [7, 32]: > 32 µg/mL; MIC [7, 33]: > 32 µg/mL; MIC [8, 34]: 8 µg/mL (≈ 9.04 µM); MIC [8, 35]: > 32 µg/mL; MIC [8, 36]: > 32 µg/mL; MIC [8, 37]: > 32 µg/mL; MIC [9, 38]: 4 µg/mL (≈ 4.52 µM); MIC [9, 39]: > 32 µg/mL
